Test results reported in patent US11000033B2, “Ketone or oxime compound, and herbicide” (NISSAN CHEMICAL CORPORATION, priority 2014, dated 2021).

Legend:
Format in all cases: in vivo
corn = assay: Test Example 5: effect on crop by foliage application, plastic box (symbol c); conditions: 320 g/ha, 3 weeks after application
Summary of the method: (§1)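 Crop seed is sown alongside grass and broadleaf weed species in spots in sterilized diluvial soil, then covered to a depth of about 1.5 cm. Plants grow in a greenhouse kept at 25° C. to 30° C.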

[1] = system: directly sowed rice plant; assay: Test Example 3: effect on crop by foliage application, Wagner pot (symbol b); conditions: application herbicide amount 320 g/ha
Summary of the method: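 Greenhouse culture at 25–30 °C of seeded rice, Cyperus difformis, Leptochloa chinensis and Echinochloa crus-galli var. crus-galli, in alluvial soil held under 0.1–0.5 cm of water in a Wagner pot.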

Monochoria vaginalis = assay: Test Example 2: herbicidal activity, application during weed generation in submerged conditions (symbol C); conditions: Table 23; application herbicide amount 320 g/ha; grade 0-5 by criteria of Test Example 1
Summary of the method: (§2)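 Weeds emerging under flooded conditions were treated with compound formulated as an emulsion and diluted with water to the intended herbicide amount, poured onto the surface of 4 cm standing water. Seeds had been co-sown in alluvial soil; plants grew at 25° C. to 30° C. and were assessed after 3 weeks.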

[2] = system: Echinochloa oryzacola Vasing.; assay: Test Example 1: herbicidal activity, application before weed generation in submerged conditions (symbol A); conditions: application herbicide amount 320 g/ha
Summary of the method: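 Application before weed emergence: an aqueous dilution of the emulsion formulation was poured onto the surface of 4 cm-deep floodwater on the day of sowing. Effect was judged after 3 weeks (greenhouse, 25–30 °C).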

[3] = system: Echinochloa oryzacola Vasing.; assay: Test Example 2: herbicidal activity, application during weed generation in submerged conditions (symbol A); conditions: Table 23; application herbicide amount 320 g/ha; grade 0-5 by criteria of Test Example 1
Summary of the method: as §2

rapeseed = assay: Test Example 4: effect on crop by soil treatment (symbol g)
Summary of the method: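 Crop seed is sown in spots together with several weed species in a box of sterilized diluvial soil. It is covered by about 1.5 cm of soil and kept in a greenhouse held between 25° C. and 30° C.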

Avena fatua = assay: Test Example 4: herbicidal effect by soil treatment (symbol I)
Summary of the method: (§3)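 Seeds were sown in sterilized diluvial soil, covered with about 1.5 cm of soil, and the soil surface was sprayed with a water-diluted emulsion of the compound at a predetermined rate. Plants grew in a greenhouse at 25° C. to 30° C.; effects were scored visually 3 weeks after application.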

wheat = assay: Test Example 5: effect on crop by foliage application, plastic box (symbol e); conditions: 320 g/ha, 3 weeks after application
Summary of the method: as §1

Setaria viridis = assay: Test Example 4: herbicidal effect by soil treatment (symbol G)
Summary of the method: as §3

Digitaria ciliaris = assay: Test Example 5: herbicidal effect by foliage application, plastic box (symbol F); conditions: 320 g/ha, 3 weeks after application
Summary of the method: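 Herbicide, formulated as an emulsion and diluted in water, is sprayed onto the aerial parts of 14-day seedlings. These were grown at 25° C. to 30° C. in sterilized diluvial soil; effects are graded after 3 weeks.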

transplanted rice plant = assay: Test Example 1: effect on crop, application before weed generation in submerged conditions (symbol a); conditions: application herbicide amount 320 g/ha
Summary of the method: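 Rice at 2.5 leaf stage transplanted into submerged soil (4 cm depth) sown with three weed species; herbicide applied before weed emergence.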

[4] = application herbicide amount 320 g/ha

## CON=C(C)CC1CC(O)=C(c2c(C)cc(-c3ccc(Cl)nc3)cc2C)C1=O (mixture of isomers) [6-035]
corn
  c: corn, effect on crop grade: 5 (Herbicidal ratio of 90% or more (almost completely withered))
[1]
  effect on crop b (directly sowed rice plant), grade 0-5: 5 (Herbicidal ratio of 90% or more (almost completely withered))
Monochoria vaginalis
  Herbicidal effect grade, C: Monochoria vaginalis: 0 (Herbicidal ratio of 5% or lower (almost no effect))
[2]
  Herbicidal effect grade, A: Echinochloa oryzacola Vasing.: 5 (Herbicidal ratio of 90% or more (almost completely withered))
[3]
  Herbicidal effect grade, A: Echinochloa oryzacola Vasing.: 5 (Herbicidal ratio of 90% or more (almost completely withered))
rapeseed; [4]
  g: rapeseed, effect on crop grade: 0 (Herbicidal ratio of 5% or lower (almost no effect))
Avena fatua; [4]
  I: Avena fatua, herbicidal effect grade: 3 (Herbicidal ratio of 40% or higher and lower than 70%)
wheat
  e: wheat, effect on crop grade: 4 (Herbicidal ratio of 70% or higher and lower than 90%)
Setaria viridis; [4]
  G: Setaria viridis, herbicidal effect grade: 5 (Herbicidal ratio of 90% or more (almost completely withered))
Digitaria ciliaris
  F: Digitaria ciliaris, herbicidal effect grade: 5 (Herbicidal ratio of 90% or more (almost completely withered))
Transplanted rice plant
  Effect grade on crop, a: transplanted rice plant: 5 (Herbicidal ratio of 90% or more (almost completely withered))

## C#CCOC1=C(c2c(C)cc(C)cc2C)C(=O)C(CC(C)=NOC)C1 (centres unmarked) [1-008]
corn
  c: corn, effect on crop grade: 0 (Herbicidal ratio of 5% or lower (almost no effect))
[1]
  effect on crop b (directly sowed rice plant), grade 0-5: 5 (Herbicidal ratio of 90% or more (almost completely withered))
Monochoria vaginalis
  Herbicidal effect grade, C: Monochoria vaginalis: 0 (Herbicidal ratio of 5% or lower (almost no effect))
[2]
  Herbicidal effect grade, A: Echinochloa oryzacola Vasing.: 5 (Herbicidal ratio of 90% or more (almost completely withered))
[3]
  Herbicidal effect grade, A: Echinochloa oryzacola Vasing.: 5 (Herbicidal ratio of 90% or more (almost completely withered))
rapeseed; [4]
  g (rapeseed) effect on crop grade: 0 (Herbicidal ratio of 5% or lower (almost no effect))
Avena fatua; [4]
  I (Avena fatua) herbicidal effect grade: 0 (Herbicidal ratio of 5% or lower (almost no effect))
wheat
  e: wheat, effect on crop grade: 0 (Herbicidal ratio of 5% or lower (almost no effect))
Setaria viridis; [4]
  G (Setaria viridis) herbicidal effect grade: 4 (Herbicidal ratio of 70% or higher and lower than 90%)
Digitaria ciliaris
  F: Digitaria ciliaris, herbicidal effect grade: 5 (Herbicidal ratio of 90% or more (almost completely withered))
Transplanted rice plant
  Effect grade on crop, a: transplanted rice plant: 0 (Herbicidal ratio of 5% or lower (almost no effect))

## CON=C(C)CC1CC(OC(=O)c2ccccc2)=C(c2c(C)cc(C)cc2C)C1=O (centres unmarked) [1-010]
corn
  c: corn, effect on crop grade: 5 (Herbicidal ratio of 90% or more (almost completely withered))
[1]
  effect on crop b (directly sowed rice plant), grade 0-5: 5 (Herbicidal ratio of 90% or more (almost completely withered))
Monochoria vaginalis
  Herbicidal effect grade, C: Monochoria vaginalis: 2 (Herbicidal ratio of 20% or higher and lower than 40%)
[2]
  Herbicidal effect grade, A: Echinochloa oryzacola Vasing.: 5 (Herbicidal ratio of 90% or more (almost completely withered))
[3]
  Herbicidal effect grade, A: Echinochloa oryzacola Vasing.: 5 (Herbicidal ratio of 90% or more (almost completely withered))
rapeseed; [4]
  g (rapeseed) effect on crop grade: 4 (Herbicidal ratio of 70% or higher and lower than 90%)
Avena fatua; [4]
  I (Avena fatua) herbicidal effect grade: 5 (Herbicidal ratio of 90% or more (almost completely withered))
wheat
  e: wheat, effect on crop grade: 5 (Herbicidal ratio of 90% or more (almost completely withered))
Setaria viridis; [4]
  G (Setaria viridis) herbicidal effect grade: 3 (Herbicidal ratio of 40% or higher and lower than 70%)
Digitaria ciliaris
  F: Digitaria ciliaris, herbicidal effect grade: 5 (Herbicidal ratio of 90% or more (almost completely withered))
Transplanted rice plant
  Effect grade on crop, a: transplanted rice plant: 5 (Herbicidal ratio of 90% or more (almost completely withered))

## CON=C(C)CC1CC(OCCSC)=C(c2c(C)cc(C)cc2C)C1=O (centres unmarked) [1-011]
corn
  c: corn, effect on crop grade: 0 (Herbicidal ratio of 5% or lower (almost no effect))
[1]
  effect on crop b (directly sowed rice plant), grade 0-5: 0 (Herbicidal ratio of 5% or lower (almost no effect))
Monochoria vaginalis
  Herbicidal effect grade, C: Monochoria vaginalis: 0 (Herbicidal ratio of 5% or lower (almost no effect))
[2]
  Herbicidal effect grade, A: Echinochloa oryzacola Vasing.: 0 (Herbicidal ratio of 5% or lower (almost no effect))
[3]
  Herbicidal effect grade, A: Echinochloa oryzacola Vasing.: 0 (Herbicidal ratio of 5% or lower (almost no effect))
rapeseed; [4]
  g (rapeseed) effect on crop grade: 0 (Herbicidal ratio of 5% or lower (almost no effect))
Avena fatua; [4]
  I (Avena fatua) herbicidal effect grade: 0 (Herbicidal ratio of 5% or lower (almost no effect))
wheat
  e: wheat, effect on crop grade: 0 (Herbicidal ratio of 5% or lower (almost no effect))
Setaria viridis; [4]
  G (Setaria viridis) herbicidal effect grade: 0 (Herbicidal ratio of 5% or lower (almost no effect))
Digitaria ciliaris
  F: Digitaria ciliaris, herbicidal effect grade: 3 (Herbicidal ratio of 40% or higher and lower than 70%)
Transplanted rice plant
  Effect grade on crop, a: transplanted rice plant: 0 (Herbicidal ratio of 5% or lower (almost no effect))

## CON=C(C)CC1CC(OCC(=O)OC)=C(c2c(C)cc(C)cc2C)C1=O (centres unmarked) [1-012]
corn
  c: corn, effect on crop grade: 0 (Herbicidal ratio of 5% or lower (almost no effect))
[1]
  effect on crop b (directly sowed rice plant), grade 0-5: 0 (Herbicidal ratio of 5% or lower (almost no effect))
Monochoria vaginalis
  Herbicidal effect grade, C: Monochoria vaginalis: 0 (Herbicidal ratio of 5% or lower (almost no effect))
[2]
  Herbicidal effect grade, A: Echinochloa oryzacola Vasing.: 0 (Herbicidal ratio of 5% or lower (almost no effect))
[3]
  Herbicidal effect grade, A: Echinochloa oryzacola Vasing.: 0 (Herbicidal ratio of 5% or lower (almost no effect))
rapeseed; [4]
  g (rapeseed) effect on crop grade: 0 (Herbicidal ratio of 5% or lower (almost no effect))
Avena fatua; [4]
  I (Avena fatua) herbicidal effect grade: 0 (Herbicidal ratio of 5% or lower (almost no effect))
wheat
  e: wheat, effect on crop grade: 0 (Herbicidal ratio of 5% or lower (almost no effect))
Setaria viridis; [4]
  G (Setaria viridis) herbicidal effect grade: 0 (Herbicidal ratio of 5% or lower (almost no effect))
Digitaria ciliaris
  F: Digitaria ciliaris, herbicidal effect grade: 0 (Herbicidal ratio of 5% or lower (almost no effect))
Transplanted rice plant
  Effect grade on crop, a: transplanted rice plant: 0 (Herbicidal ratio of 5% or lower (almost no effect))

## CON=C(C)CC1CC(OCC#N)=C(c2c(C)cc(C)cc2C)C1=O (centres unmarked) [1-013]
corn
  c: corn, effect on crop grade: 0 (Herbicidal ratio of 5% or lower (almost no effect))
[1]
  effect on crop b (directly sowed rice plant), grade 0-5: 0 (Herbicidal ratio of 5% or lower (almost no effect))
Monochoria vaginalis
  Herbicidal effect grade, C: Monochoria vaginalis: 0 (Herbicidal ratio of 5% or lower (almost no effect))
[2]
  Herbicidal effect grade, A: Echinochloa oryzacola Vasing.: 0 (Herbicidal ratio of 5% or lower (almost no effect))
[3]
  Herbicidal effect grade, A: Echinochloa oryzacola Vasing.: 0 (Herbicidal ratio of 5% or lower (almost no effect))
rapeseed; [4]
  g (rapeseed) effect on crop grade: 0 (Herbicidal ratio of 5% or lower (almost no effect))
Avena fatua; [4]
  I (Avena fatua) herbicidal effect grade: 0 (Herbicidal ratio of 5% or lower (almost no effect))
wheat
  e: wheat, effect on crop grade: 0 (Herbicidal ratio of 5% or lower (almost no effect))
Setaria viridis; [4]
  G (Setaria viridis) herbicidal effect grade: 0 (Herbicidal ratio of 5% or lower (almost no effect))
Digitaria ciliaris
  F: Digitaria ciliaris, herbicidal effect grade: 0 (Herbicidal ratio of 5% or lower (almost no effect))
Transplanted rice plant
  Effect grade on crop, a: transplanted rice plant: 0 (Herbicidal ratio of 5% or lower (almost no effect))

## CON=C(C)CC1CC(OS(=O)(=O)C2CC2)=C(c2c(C)cc(C)cc2C)C1=O (centres unmarked) [1-143]
corn
  c: corn, effect on crop (criteria 0-5): 3 (Herbicidal ratio of 40% or higher and lower than 70%)
[1]
  effect on crop b (directly sowed rice plant), grade 0-5: 5 (Herbicidal ratio of 90% or more (almost completely withered))
Monochoria vaginalis
  Herbicidal effect grade, C: Monochoria vaginalis: 3 (Herbicidal ratio of 40% or higher and lower than 70%)
[2]
  Herbicidal effect grade, A: Echinochloa oryzacola Vasing.: 4 (Herbicidal ratio of 70% or higher and lower than 90%)
[3]
  Herbicidal effect grade, A: Echinochloa oryzacola Vasing.: 4 (Herbicidal ratio of 70% or higher and lower than 90%)
rapeseed; 320 g/ha
  g: rapeseed, effect grade on crop: 0 (Herbicidal ratio of 5% or lower (almost no effect))
Avena fatua; 320 g/ha
  I: Avena fatua, herbicidal effect grade: 2 (Herbicidal ratio of 20% or higher and lower than 40%)
wheat
  e: wheat, effect on crop (criteria 0-5): 3 (Herbicidal ratio of 40% or higher and lower than 70%)
Setaria viridis; 320 g/ha
  G: Setaria viridis, herbicidal effect grade: 1 (Herbicidal ratio of 5% or higher and lower than 20%)
Digitaria ciliaris
  F: Digitaria ciliaris, herbicidal effect (criteria 0-5): 5 (Herbicidal ratio of 90% or more (almost completely withered))
Transplanted rice plant
  Effect grade on crop, a: transplanted rice plant: 5 (Herbicidal ratio of 90% or more (almost completely withered))
